Results published in patent US7943382B2, “Method for inspecting fat-soluble vitamin and/or fat-soluble food factor by saliva analysis” (Mitsubishi Chemical Medience Corporation, priority 2004, dated 2011).

What was measured:
[1] = Correlation between the blood level and the content in saliva (CoQ10 ingestion tests part 1 and 2); format: in vivo, human
Method: 11 volunteers were made to ingest orally two tablets (CoQ10 content: 100 mg in two tablets) of Q10AA Multi (trade name, Shiseido Co., Ltd., hereinafter may be referred to “Supplement S”), a commercial CoQ10 supplement, at 7:00 every morning continuously for a week. Meanwhile, the contents of the fat-soluble vitamins and fat-soluble food factors in the Supplement S are 50 mg/tablet as for CoQ10, and 16.4 mg/tablet as for α-tocopherol. Then parotid saliva, directly collected saliva and heparinized plasma were collected from PM 4:00 to 5:00, three times, before and one week after ingestion and two weeks after discontinuation of ingestion. The volunteer had the mouth rinsed with water, and kept quiet on a chair for 5 minutes, while the volunteer accumulated saliva in the oral cavity and discharge to initialize the oral cavity, followed by collecting saliva. Approximately 1 ml of saliva accumulated in the oral cavity was collected as directly collected saliva. In order to collect saliva from the parotid gland, an absorbent cotton of 2 g was put beneath the tongue to prevent contamination with saliva from sublingual gland and submandibular gland, while the Saliva-sampler comprising a cotton saliva absorber and an indicator which informed termination of collection by color change was inserted between the teeth and the cheek near the open of the parotid gland. […]

[2] = Extraction of CoQ10 from absorbent materials with 75% (V/V) ethanol; format: physicochemical
Method: In the method of preparing the specimens in example 2, the absorbent materials for saliva and the collection rate by extraction with 75% (V/V) ethanol were weighed. An absorbent of 50 mg was soaked in 600 μl of saliva, to which […] of ethanol was added, mixed, and centrifuged at 4° C. by 1000 G or 5 minutes to remove proteins, and 20 μl of the supernatant was subjected to HPLC. The results of analysis for CoQ10 are shown in Table 3 as “CoQ10 concentrations in saliva which was obtained by steps that 50 mg of the absorbent was soaked in 600 μl of saliva and the saliva was extracted with 1800 μl of ethanol (final concentration: 75%)”. […] Thus, although the fat-soluble components in saliva are adsorbed to the absorbent, the content in a certain amount of saliva can be determined by analyzing the summation of the fat-soluble food factors and the fat-soluble vitamins contained in saliva preserved in the absorbent and interspace.

[3] = Adsorption of CoQ10 in saliva to absorbent materials (no extraction); format: physicochemical
Method: In the method of preparing the specimens in example 2, the absorbent materials for saliva were weighed. 50 mg of an absorbent was soaked in 600 μl of saliva, 20 μl of saliva was fractionated to analyze the CoQ10 concentration in saliva transuaded from the absorbent, to which 180 μl of isopropanol was added, mixed, and centrifuged at 4° C. by 1000 G for 5 minutes to remove proteins, and 20 μl of the supernatant was subjected to HPLC. The results of analysis for CoQ10 are shown in Table 1 as “CoQ10 concentrations in saliva which was obtained by steps that 50 mg of the absorbent was soaked in 600 μl of saliva and the saliva was preserved in the interspace of the absorbent”. It took about 3 minutes to secrete 1 ml of parotid saliva for the volunteers who spent little time, and 10 minutes or longer for the volunteers who spent lots of time, therefore it is practically difficult to collect without the absorbent. In this case, the fat-soluble food factors and the fat-soluble vitamins are adsorbed by any absorbent materials for saliva such as polyester, cotton and acetylcellulose. Although it is lowly absorptive, polyurethane fills water in saliva as bound water, so that condensation is caused, resulting in apparently high level (Refer to Table 1). Consequently, the adsorbed component should be extracted. […] That means, a certain amount of saliva should be absorbed to a certain amount of absorbent in the oral cavity.

[4] = Acetylcellulose + ethanol (final concentration 75%)
[5] = Cotton + ethanol (final concentration 75%)
[6] = Polyester + ethanol (final concentration 75%)
[7] = Polyurethane + ethanol (final concentration 75%)
[8] = 50 mg Acetylcellulose soaked in 600 μl of saliva
[9] = 50 mg Cotton soaked in 600 μl of saliva
[10] = 50 mg Polyester soaked in 600 μl of saliva
[11] = 50 mg Polyurethane soaked in 600 μl of saliva

SMILES: COC1=C(OC)C(=O)C(C/C=C(\C)CC/C=C(\C)CC/C=C(\C)CC/C=C(\C)CC/C=C(\C)CC/C=C(\C)CC/C=C(\C)CC/C=C(\C)CC/C=C(\C)CCC=C(C)C)=C(C)C1=O [CoQ10, Ubidecarenone]
- correlation between concentrations in parotid saliva and plasma ([1]; 112 specimens of examples 2 and 3, FIG. 5): good correlation
- correlation between levels in directly collected saliva and plasma ([1]; FIG. 6): weak but recognizable correlation
- CoQ10 concentration in saliva after extraction [2, 4]: 31.8 ng/mL
- Collection rate [2, 4]: 94.3%
- CoQ10 concentration in saliva after extraction [2, 5]: 32.2 ng/mL
- Collection rate [2, 5]: 95.6%
- CoQ10 concentration in saliva after extraction [2, 6]: 34.2 ng/mL
- Collection rate [2, 6]: 102%
- CoQ10 concentration in saliva after extraction [2, 7]: 32.1 ng/mL
- Collection rate [2, 7]: 95.2%
- CoQ10 concentration in saliva ([2]; Saliva (control)): 33.7 ng/mL
- Collection rate ([2]; Saliva (control)): 100%
- collection by extraction, independent of the absorbent material ([2]; ethanol 75% (V/V)): approximately 100%
- CoQ10 concentration in saliva preserved in the interspace of the absorbent [3, 8]: 25 ng/mL
- Collection rate [3, 8]: 7.3%
- CoQ10 concentration in saliva preserved in the interspace of the absorbent [3, 9]: 3.4 ng/mL
- Collection rate [3, 9]: 10.2%
- CoQ10 concentration in saliva preserved in the interspace of the absorbent [3, 10]: 19.6 ng/mL
- Collection rate [3, 10]: 58.2%
- CoQ10 concentration in saliva preserved in the interspace of the absorbent [3, 11]: 59.8 ng/mL
- Collection rate [3, 11]: 178%
- CoQ10 concentration in saliva ([3]; Saliva (control), no absorbent): 33.7 ng/mL
- Collection rate ([3]; Saliva (control), no absorbent): 100%
